Laboratory results as given in article PMC5501787, “Heliosterpenoids A and B, two Novel Jatrophane-Derived Diterpenoids with a 5/6/4/6 Ring System from Euphorbia helioscopia” (Scientific Reports, 2017).

Target: P-glycoprotein (ABCB1) (Homo sapiens, UniProt P08183)
Assay: inhibition of P-gp-mediated adriamycin efflux in MCF-7/ADR cells
Assay type: cell-based

Chain of P-glycoprotein (ABCB1) (P08183 whole entry): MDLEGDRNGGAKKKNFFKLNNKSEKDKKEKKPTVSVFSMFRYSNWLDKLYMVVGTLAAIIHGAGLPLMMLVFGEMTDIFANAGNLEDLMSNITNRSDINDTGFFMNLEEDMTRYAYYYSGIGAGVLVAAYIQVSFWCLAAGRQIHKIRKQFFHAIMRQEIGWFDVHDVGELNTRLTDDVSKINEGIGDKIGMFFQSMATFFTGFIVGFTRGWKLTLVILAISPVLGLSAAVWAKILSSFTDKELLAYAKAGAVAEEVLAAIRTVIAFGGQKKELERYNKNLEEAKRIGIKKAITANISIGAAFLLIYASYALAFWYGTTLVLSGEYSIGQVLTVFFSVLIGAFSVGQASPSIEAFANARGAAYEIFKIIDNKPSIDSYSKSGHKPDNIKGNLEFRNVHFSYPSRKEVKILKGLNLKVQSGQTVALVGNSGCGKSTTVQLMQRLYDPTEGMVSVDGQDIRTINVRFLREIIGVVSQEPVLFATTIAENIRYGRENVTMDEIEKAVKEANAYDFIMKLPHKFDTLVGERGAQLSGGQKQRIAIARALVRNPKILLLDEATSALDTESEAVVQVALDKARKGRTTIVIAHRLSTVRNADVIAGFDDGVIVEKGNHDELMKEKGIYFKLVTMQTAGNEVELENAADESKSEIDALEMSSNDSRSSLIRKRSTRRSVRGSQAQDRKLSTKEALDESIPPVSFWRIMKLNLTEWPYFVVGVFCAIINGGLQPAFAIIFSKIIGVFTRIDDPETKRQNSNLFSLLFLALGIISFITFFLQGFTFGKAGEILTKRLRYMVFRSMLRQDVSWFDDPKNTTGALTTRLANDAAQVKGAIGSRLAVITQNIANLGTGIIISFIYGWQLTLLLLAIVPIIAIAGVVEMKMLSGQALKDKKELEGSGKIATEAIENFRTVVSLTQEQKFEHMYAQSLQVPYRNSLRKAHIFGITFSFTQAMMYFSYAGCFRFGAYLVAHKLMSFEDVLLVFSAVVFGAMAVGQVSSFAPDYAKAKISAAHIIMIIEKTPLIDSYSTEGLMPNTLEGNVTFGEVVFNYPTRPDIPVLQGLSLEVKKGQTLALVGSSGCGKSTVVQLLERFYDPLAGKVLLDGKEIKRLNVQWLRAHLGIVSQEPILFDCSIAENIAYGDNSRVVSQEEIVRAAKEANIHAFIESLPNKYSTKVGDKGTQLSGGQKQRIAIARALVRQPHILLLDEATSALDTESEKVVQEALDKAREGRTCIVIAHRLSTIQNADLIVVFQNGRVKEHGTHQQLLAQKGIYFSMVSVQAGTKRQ

Row | SMILES | IC50
1 | CC(=O)O[C@@H]1[C@@H](C)[C@H]2[C@@H]([C@H]3[C@@H](OC(=O)c4ccccc4)[C@H](C)C[C@@]31OC(C)=O)[C@]1(C)C=CC(=O)C(C)(C)[C@H]21 [compound 1, Heliosterpenoid A] | 1280 nM
2 | CC(=O)O[C@H]1[C@@H](C)[C@H]2[C@@H]([C@H]3[C@@H](OC(=O)c4ccccc4)[C@@H](C)C[C@@]31O)[C@]1(C)C(=O)C=CC(C)(C)[C@H]21 [compound 2, Heliosterpenoid B] | 1020 nM
